Source: the supplement of paper PMC8149375

Experiments:
Conditions in all cases: treatment: drug + dasatinib (fixed dose, not stated); 5 days
CAKI-1 [1] = experiment: GI50 of drug in presence of dasatinib; higher = less potent
Experimental: (§1)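 Primary HTS combination arm: 8 RCC cell lines treated with 8 doses (up to 10 uM) of each library drug plus a fixed dose of dasatinib (dose not stated) for 5 days; viability read by CellTiter-Glo and normalised to DMSO. GI50 was fitted with XLfit, AUC is the area under the dose-response curve, and minimum viability is the lowest fraction of DMSO viability across doses.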

A498 [2] = experiment: as above
Experimental: as §1

786-O [3] = experiment: as above
Experimental: as §1

UO-31 [4] = experiment: as above
Experimental: as §1

ACHN [5] = experiment: as above
Experimental: as §1

SN12C [6] = experiment: as above
Experimental: as §1

TK-10 [7] = experiment: as above
Experimental: as §1

769-P [8] = experiment: as above
Experimental: as §1

CAKI-1 [9] = experiment: minimum viability across doses, drug + dasatinib, relative to DMSO (fraction); higher = less growth inhibition
Experimental: as §1

A498 [10] = experiment: as above
Experimental: as §1

786-O [11] = experiment: as above
Experimental: as §1

UO-31 [12] = experiment: as above
Experimental: as §1

ACHN [13] = experiment: as above
Experimental: as §1

SN12C [14] = experiment: as above
Experimental: as §1

TK-10 [15] = experiment: as above
Experimental: as §1

769-P [16] = experiment: as above
Experimental: as §1

CAKI-1 [17] = experiment: AUC of dose-response viability curve, drug + dasatinib, normalised to DMSO (arbitrary (AUC of normalised viability)); higher = less growth inhibition
Experimental: as §1

A498 [18] = experiment: as above
Experimental: as §1

786-O [19] = experiment: as above
Experimental: as §1

UO-31 [20] = experiment: as above
Experimental: as §1

ACHN [21] = experiment: as above
Experimental: as §1

SN12C [22] = experiment: as above
Experimental: as §1

TK-10 [23] = experiment: as above
Experimental: as §1

769-P [24] = experiment: as above
Experimental: as §1

SMILES	GI50 of drug (CAKI-1 [1])	GI50 of drug (A498 [2])	GI50 of drug (786-O [3])	GI50 of drug (UO-31 [4])	GI50 of drug (ACHN [5])	GI50 of drug (SN12C [6])	GI50 of drug (TK-10 [7])	GI50 of drug (769-P [8])	minimum viability across doses (CAKI-1 [9])	minimum viability across doses (A498 [10])	minimum viability across doses (786-O [11])	minimum viability across doses (UO-31 [12])	minimum viability across doses (ACHN [13])	minimum viability across doses (SN12C [14])	minimum viability across doses (TK-10 [15])	minimum viability across doses (769-P [16])	AUC of dose-response viability curve (CAKI-1 [17])	AUC of dose-response viability curve (A498 [18])	AUC of dose-response viability curve (786-O [19])	AUC of dose-response viability curve (UO-31 [20])	AUC of dose-response viability curve (ACHN [21])	AUC of dose-response viability curve (SN12C [22])	AUC of dose-response viability curve (TK-10 [23])	AUC of dose-response viability curve (769-P [24])
O=C(Nc1ccc(OC(F)(F)F)cc1)c1sccc1NCc1ccnc2ccccc12 [OSI-930] + Cc1nc(Nc2ncc(C(=O)Nc3c(C)cccc3Cl)s2)cc(N2CCN(CCO)CC2)n1 [dasatinib]	3170 nM	> 10000 nM	4480 nM	4590 nM	2350 nM	6210 nM	6520 nM	3090 nM	0.136	0.685	0.32	0.0216	0.129	0.174	0.395	0.24	2.23	3.69	2.41	3.25	2.07	2.57	2.71	2.23
COC1=CC(c2cc3ccccc3[nH]2)=N/C1=C\c1[nH]c(C)cc1C.CS(=O)(=O)O [Obatoclax mesylate (GX15-070)] + Cc1nc(Nc2ncc(C(=O)Nc3c(C)cccc3Cl)s2)cc(N2CCN(CCO)CC2)n1 [dasatinib]	122 nM	277 nM	31.6 nM	305 nM	15.4 nM	153 nM	86.6 nM	145 nM	0.00534	0.0102	0.00545	0.00726	0.014	0.00176	0.151	0.0261	1.4	1.76	0.949	2.23	0.992	1.38	1.58	1.46
C=CCc1cccc(/C=N/NC(=O)CN2CCN(Cc3ccccc3)CC2)c1O [PAC-1] + Cc1nc(Nc2ncc(C(=O)Nc3c(C)cccc3Cl)s2)cc(N2CCN(CCO)CC2)n1 [dasatinib]	1350 nM	4840 nM	427 nM	2010 nM	174 nM	3460 nM	764 nM	1420 nM	0.0701	0.169	0.0103	0.0141	0.0168	0.0519	0.0728	0.0266	2.07	3.38	1.73	3.14	1.49	2.41	2.04	2.17
CCCCCCCCCCCCc1ccc(S(=O)(=O)Nc2nncs2)cc1 [PHT-427] + Cc1nc(Nc2ncc(C(=O)Nc3c(C)cccc3Cl)s2)cc(N2CCN(CCO)CC2)n1 [dasatinib]	> 10000 nM	> 10000 nM	4870 nM	> 10000 nM	> 10000 nM	> 10000 nM	> 10000 nM	> 10000 nM	0.656	0.912	0.455	1.13	0.47	0.691	0.67	0.631	2.43	3.58	1.91	4.28	1.87	2.53	2.53	2.43
Oc1cccc(-c2nc(N3CCOCC3)c3oc4ncccc4c3n2)c1 [PI-103] + Cc1nc(Nc2ncc(C(=O)Nc3c(C)cccc3Cl)s2)cc(N2CCN(CCO)CC2)n1 [dasatinib]	322 nM	386 nM	73.1 nM	115 nM	31.4 nM	156 nM	389 nM	461 nM	0.0121	0.111	0.0069	0.00638	0.0522	0.116	0.0871	0.0372	1.63	2.06	1.43	1.49	1.2	1.57	1.86	1.84
Cc1ccc([N+](=O)[O-])cc1S(=O)(=O)N(C)/N=C/c1cnc2ccc(Br)cn12.Cl [PIK-75] + Cc1nc(Nc2ncc(C(=O)Nc3c(C)cccc3Cl)s2)cc(N2CCN(CCO)CC2)n1 [dasatinib]	7.8 nM	65.6 nM	30.3 nM	43 nM	7.83 nM	57.7 nM	45.1 nM	47.6 nM	0.0337	0.00818	0.00381	0.00696	0.00364	0.00539	0.124	0.00622	0.683	1.29	0.918	1.22	0.571	1.07	1.4	1.11
CC(=O)Nc1nc(C)c(-c2ccc(Cl)c(S(=O)(=O)NCCO)c2)s1 [PIK-93] + Cc1nc(Nc2ncc(C(=O)Nc3c(C)cccc3Cl)s2)cc(N2CCN(CCO)CC2)n1 [dasatinib]	1170 nM	8110 nM	135 nM	4320 nM	976 nM	1890 nM	3690 nM	4000 nM	0.068	0.476	0.127	0.0793	0.188	0.259	0.251	0.352	2.05	3.29	1.49	3.76	1.75	2.14	2.31	2.31
Cc1ccccc1-n1c(Cn2ncc3c(N)ncnc32)nc2cccc(C)c2c1=O [PIK-293] + Cc1nc(Nc2ncc(C(=O)Nc3c(C)cccc3Cl)s2)cc(N2CCN(CCO)CC2)n1 [dasatinib]	> 10000 nM	> 10000 nM	> 10000 nM	> 10000 nM	2540 nM	> 10000 nM	> 10000 nM	> 10000 nM	0.655	0.782	0.6	1.15	0.539	0.666	0.66	0.685	2.38	3.17	2.24	4.4	2.17	2.43	2.47	2.55
CCn1nnc2c(N3CCOCC3)nc(-c3ccc(NC(=O)Nc4ccc(C(=O)N5CCN(C)CC5)cc4)cc3)nc21 [PKI-402] + Cc1nc(Nc2ncc(C(=O)Nc3c(C)cccc3Cl)s2)cc(N2CCN(CCO)CC2)n1 [dasatinib]	122 nM	87.5 nM	98 nM	350 nM	82.8 nM	41.6 nM	117 nM	450 nM	0.0314	0.148	0.00332	0.00734	0.0465	0.0929	0.0238	0.0547	1.48	1.66	1.41	2.39	1.25	1.19	1.55	1.86
CCCS(=O)(=O)Nc1ccc(F)c(C(=O)c2c[nH]c3ncc(Cl)cc23)c1F [PLX-4720] + Cc1nc(Nc2ncc(C(=O)Nc3c(C)cccc3Cl)s2)cc(N2CCN(CCO)CC2)n1 [dasatinib]	1700 nM	> 10000 nM	2740 nM	> 10000 nM	1070 nM	> 10000 nM	5470 nM	> 10000 nM	0.0731	0.765	0.212	0.806	0.127	0.679	0.361	0.641	2.08	3	2.13	3.22	1.93	2.47	2.44	2.48
CC(C)n1nc(-c2cc3cc(O)ccc3[nH]2)c2c(N)ncnc21 [PP242] + Cc1nc(Nc2ncc(C(=O)Nc3c(C)cccc3Cl)s2)cc(N2CCN(CCO)CC2)n1 [dasatinib]	158 nM	1350 nM	713 nM	1140 nM	24.5 nM	357 nM	253 nM	401 nM	0.0342	0.152	0.00231	0.00386	0.0314	0.0689	0.0716	0.0492	1.51	2.41	1.74	2.82	1.19	1.74	1.86	1.86
Nc1ncnc2c1c(-c1cnc3[nH]ccc3c1)nn2C1CCCC1 [PP-121] + Cc1nc(Nc2ncc(C(=O)Nc3c(C)cccc3Cl)s2)cc(N2CCN(CCO)CC2)n1 [dasatinib]	126 nM	1270 nM	73.8 nM	896 nM	132 nM	337 nM	261 nM	415 nM	0.00718	0.0684	0.00453	0.00907	0.0126	0.0517	0.0102	0.0299	1.41	2.5	1.44	2.71	1.41	1.73	1.67	1.74
COc1ccc(COc2cc3oc(=O)c4cc(C(C)O)ccc4c3cc2OC)cc1 (configuration not stated) [Palomid 529] + Cc1nc(Nc2ncc(C(=O)Nc3c(C)cccc3Cl)s2)cc(N2CCN(CCO)CC2)n1 [dasatinib]	5940 nM	> 10000 nM	2960 nM	> 10000 nM	> 10000 nM	> 10000 nM	> 10000 nM	6220 nM	0.414	0.857	0.324	1.17	0.539	0.707	0.635	0.415	2.25	3.49	2.05	4.61	2.1	2.53	2.53	2.29
